Data taken from US20230382924A1, “MODULATORS OF CYSTIC FIBROSIS TRANSMEMBRANE CONDUCTANCE REGULATOR” (VERTEX PHARMACEUTICALS INCORPORATED, priority 2020, published 2023).
pEC50: −log10 of the molar value. “And” between values parts separate entries of the source, which are not always exact repeats. Equal entries are not always repeated. Where two headings read alike, the source gives them in different places. One block for each compound: values may come before it.

Tests used:
F508del = target: T1, F508del (Homo sapiens, UniProt P13569, DEL508-508); assay: 3T3 assay: membrane potential optical assay for F508del correction in NIH 3T3 cells; type: cell-based
T1 construct: expressed in transfected cells
T1 sequence (P13569 with tags, fused parts or gaps DEL508-508): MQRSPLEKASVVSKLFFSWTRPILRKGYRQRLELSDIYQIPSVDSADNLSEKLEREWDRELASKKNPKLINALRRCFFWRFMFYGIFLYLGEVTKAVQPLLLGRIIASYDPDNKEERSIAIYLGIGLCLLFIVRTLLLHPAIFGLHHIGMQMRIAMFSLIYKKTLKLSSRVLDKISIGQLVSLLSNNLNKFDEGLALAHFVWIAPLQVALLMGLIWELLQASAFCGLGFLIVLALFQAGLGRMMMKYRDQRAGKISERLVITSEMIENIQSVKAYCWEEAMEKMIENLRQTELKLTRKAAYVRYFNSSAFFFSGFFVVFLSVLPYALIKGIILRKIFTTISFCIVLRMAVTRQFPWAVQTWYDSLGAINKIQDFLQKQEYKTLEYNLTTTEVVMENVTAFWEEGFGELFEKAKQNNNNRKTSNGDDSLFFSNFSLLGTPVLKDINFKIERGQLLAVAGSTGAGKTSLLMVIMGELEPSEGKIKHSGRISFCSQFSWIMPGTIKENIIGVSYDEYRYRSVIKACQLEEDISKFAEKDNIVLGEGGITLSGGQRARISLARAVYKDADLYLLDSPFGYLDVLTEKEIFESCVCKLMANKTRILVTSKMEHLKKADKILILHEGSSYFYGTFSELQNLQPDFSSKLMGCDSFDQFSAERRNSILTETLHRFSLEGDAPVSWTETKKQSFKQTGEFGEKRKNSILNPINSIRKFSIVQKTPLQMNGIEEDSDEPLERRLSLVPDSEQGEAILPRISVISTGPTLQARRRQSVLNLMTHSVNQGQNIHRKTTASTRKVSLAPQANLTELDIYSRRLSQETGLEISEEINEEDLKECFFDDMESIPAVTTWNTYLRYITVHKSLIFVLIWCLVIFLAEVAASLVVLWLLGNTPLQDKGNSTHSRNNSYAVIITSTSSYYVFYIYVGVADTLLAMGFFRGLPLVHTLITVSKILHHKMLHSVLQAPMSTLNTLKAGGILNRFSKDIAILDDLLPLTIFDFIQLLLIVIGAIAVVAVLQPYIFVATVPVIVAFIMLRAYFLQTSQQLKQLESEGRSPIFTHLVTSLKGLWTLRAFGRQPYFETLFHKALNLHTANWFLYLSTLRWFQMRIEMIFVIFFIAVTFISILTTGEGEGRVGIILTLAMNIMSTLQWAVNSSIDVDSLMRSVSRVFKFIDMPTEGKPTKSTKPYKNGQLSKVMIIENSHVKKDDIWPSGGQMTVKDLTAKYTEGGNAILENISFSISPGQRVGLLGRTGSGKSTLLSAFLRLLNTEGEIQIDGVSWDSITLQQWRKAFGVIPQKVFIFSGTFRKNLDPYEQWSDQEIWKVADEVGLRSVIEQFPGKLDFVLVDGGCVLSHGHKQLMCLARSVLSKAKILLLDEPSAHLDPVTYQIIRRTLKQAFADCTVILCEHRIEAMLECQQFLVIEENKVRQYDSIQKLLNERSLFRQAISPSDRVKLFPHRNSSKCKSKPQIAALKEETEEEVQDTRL
Text: 1. Membrane Potential Optical Methods for Assaying F508del Modulation Properties of Compounds
The assay utilizes fluorescent voltage sensing dyes to measure changes in membrane potential using a fluorescent plate reader (e.g., FLIPR III, Molecular Devices, Inc.) as a readout for increase in functional F508del in NIH 3T3 cells. The driving force for the response is the creation of a chloride ion gradient in conjunction with channel activation by a single liquid addition step after the cells have previously been treated with compounds and subsequently loaded with a voltage sensing dye.
2. Identification of Corrector Compounds
To identify correctors of F508del, a single-addition HTS assay format was developed. This HTS assay utilizes fluorescent voltage sensing dyes to measure changes in membrane potential on the FLIPR III as a measurement for increase in gating (conductance) of F508del in F508del NIH 3T3 cells. The F508del NIH 3T3 cell cultures were incubated with the corrector compounds at a range of concentrations for 18-24 hours at 37° C., and subsequently loaded with a redistribution dye. The driving force for the response is a Cl^− ion gradient in conjunction with channel activation with forskolin in a single liquid addition step using a fluorescent plate reader such as FLIPR III.
Bath Solution #1: (in mM) NaCl 160, KCl 4.5, CaCl2) 2, MgCl2 1, HEPES 10, pH 7.4 with NaOH.
Chloride-free bath solution: Chloride salts in Bath Solution #1 (above) are substituted with gluconate salts.
NIH3T3 mouse fibroblasts stably expressing F508del are used for optical measurements of membrane potential. The cells are maintained at 37° C. in 5% CO2 and 90% humidity in Dulbecco's modified Eagle's medium supplemented with 2 mM glutamine, 10% fetal bovine serum, 1×NEAA, b-ME, 1×pen/strep, and 25 mM HEPES in 175 cm^2 culture flasks. For all optical assays, the cells were seeded at ˜20,000/well in 384-well matrigel-coated plates. For the correction assays, the cells are cultured at 37° C. with and without compounds for 16-24 hours.

CFTR [1] = target: T2, CFTR (Homo sapiens, UniProt P13569); assay: Membrane Potential Dye, Enteroid Assay A; type: cell-based; settings: for pEC50: read-out: Ent. A EC50
T2 sequence (P13569 with tags, fused parts or gaps DEL508-508): as above
Method in brief: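 Enteroid cells were loaded with methyl oxonol membrane potential dye (plus CaCCinh-A01 and Chicago Sky Blue) for 25 min at room temperature. Chloride transport was started by switching to chloride-free gluconate stimulation solution, with fluorescence read for 15 min. Activity was expressed as % of a triple-combination CFTR modulator control (3 μM, 3 μM, 300 nM acute).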

CFTR [2] = target: T2, CFTR; assay: Membrane Potential Dye, Enteroid Assay B; type: cell-based; settings: for pEC50: read-out: Ent. B EC50
Method in brief: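 Enteroid cells loaded 25 min at room temperature with 20 μM methyl oxonol plus 30 μM CaCCinh-A01 and 30 μM Chicago Sky Blue, then switched to chloride-free gluconate buffer. Chloride transport was started by chloride-free stimulation solution, with fluorescence read for 15 min.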

Structure (SMILES): Cc1cccc(C)c1-c1cc2nc(n1)NS(=O)(=O)C1CCC1C(=O)N[C@H](CC(C)C)CO2 (some centres unmarked)
ring closure, yield after HPLC (from Cc1cccc(C)c1-c1cc(OC[C@H](N)CC(C)C)nc(NS(=O)(=O)C2CCC2C(=O)O)n1, amide bond, 12-membered ring, HATU/DIEA, DMF, 42.9 mM, 25.0 °C, 0.083 h, 2 steps): 4% and 8%

Structure (SMILES): Cc1cccc(C)c1-c1cc2nc(n1)NS(=O)(=O)c1cccc(c1)C(=O)NC1CC(CN(CCC(C)(C)C)C1)O2 (centres unmarked)
ring closure, yield after HPLC (from Cc1cccc(C)c1-c1cc(Cl)nc(NS(=O)(=O)c2cccc(C(=O)NC3CC(O)CN(CCC(C)(C)C)C3)c2)n1, snar bond, 14-membered ring, NaH, NMP, 5.8 mM, 70.0 °C, 2.0 h, 2 steps): 2%
ring closure, yield after HPLC (from Cc1cccc(C)c1-c1cc(Cl)nc(NS(=O)(=O)c2cccc(C(=O)NC3CC(O)CN(CCC(C)(C)C)C3)c2)n1, snar bond, 14-membered ring, NaH, NMP, 9.2 mM, 70.0 °C, 2.0 h, 2 steps): 3%

Structure (SMILES): Cc1cccc(C)c1-c1cc2nc(n1)NS(=O)(=O)c1cccc(c1)C(=O)NCC(c1ccc(C3CCC3)cc1)O2 (centres unmarked)
ring closure, yield after HPLC (from Cc1cccc(C)c1-c1cc(OC(CN)c2ccc(C3CCC3)cc2)nc(NS(=O)(=O)c2cccc(C(=O)O)c2)n1, amide bond, 13-membered ring, HATU/DIEA, DMF, 189.0 mM, 25.0 °C, 0.5 h): 1%

Structure (SMILES): Cc1cccc(C)c1-c1cc2nc(n1)NS(=O)(=O)c1cccc(c1)C(=O)NCC(c1ccc([Si](C)(C)C)cc1)O2 (centres unmarked)
ring closure, yield after HPLC (from Cc1cccc(C)c1-c1cc(OC(CN)c2ccc([Si](C)(C)C)cc2)nc(NS(=O)(=O)c2cccc(C(=O)O)c2)n1, amide bond, 13-membered ring, HATU/DIEA, DMF, 55.1 mM, 25.0 °C, 0.5 h): 23%

Structure (SMILES): Cc1cccc(C)c1-c1cc2nc(n1)NS(=O)(=O)c1cccc(c1)C(=O)NC[C@H](CO[Si](c1ccccc1)(c1ccccc1)C(C)(C)C)O2
ring closure, yield after HPLC (from Cc1cccc(C)c1-c1cc(O[C@H](CN)CO[Si](c2ccccc2)(c2ccccc2)C(C)(C)C)nc(NS(=O)(=O)c2cccc(C(=O)O)c2)n1, amide bond, 13-membered ring, HATU/DIEA, DMF, 30.8 mM, 25.0 °C, 1.0 h, 2 steps): 98%

Structure (SMILES): Cc1cccc(C)c1-c1cc2nc(n1)NS(=O)(=O)c1cccc(c1)C(=O)N[C@H](CC(C)C)C(c1ccc(C(C)(C)C)cc1)O2 (some centres unmarked)
ring closure, yield after HPLC (from Cc1cccc(C)c1-c1cc(OC(c2ccc(C(C)(C)C)cc2)[C@H](N)CC(C)C)nc(NS(=O)(=O)c2cccc(C(=O)O)c2)n1, amide bond, 13-membered ring, HATU/NaOtBu, DMF/THF, 69.4 mM, 25.0 °C, 2.0 h, 2 steps): 21% and 15%

Structure (SMILES): Cc1cccc(C)c1-c1nc2cc(n1)OC[C@@H](CC(C)C)NC(=O)c1cccc(c1)S(=O)(=O)N2
ring closure, yield after HPLC (from Cc1cccc(C)c1-c1nc(NS(=O)(=O)c2cccc(C(=O)O)c2)cc(OC[C@H](N)CC(C)C)n1, amide bond, 13-membered ring, HATU/TEA, DMF, 12.2 mM, 25.0 °C, 0.083 h): 32%

Emax (F508del; NIH3T3, Table 8, read-out: 3T3 Max Activity): > 60%
pEC50 (F508del; Table 8): > 6.00
Ent. A Max Activity (CFTR [1]; Table 8): +++ (+++ is >60%)
pEC50 (CFTR [1]; Table 8): > 6.00
Ent. B Max Activity (CFTR [2]; Table 8): +++ (+++ is >60%)
pEC50 (CFTR [2]; Table 8): > 6.00
Structure (SMILES): Cc1cccc(C)c1-c1cc2nc(n1)NS(=O)(=O)c1cccc(c1)C(=O)NC[C@@H](c1ccc(C(C)(C)C)cc1)O2 (single isomer, unassigned) [Compound 5]

Ent. A Max Activity (CFTR [1]; Table 9): +++ (+++ is >60%)
pEC50 (CFTR [1]; Table 9): > 6.00
Structure (SMILES): COC[C@H]1NC(=O)c2cccc(c2)S(=O)(=O)Nc2nc(cc(-c3c(C)cccc3C)n2)O[C@@H]1c1ccc(C(C)(C)C)cc1 (single isomer, unassigned) [Compound 44]
ring closure, yield after HPLC (from COC[C@@H](N)[C@H](Oc1cc(-c2c(C)cccc2C)nc(NS(=O)(=O)c2cccc(C(=O)O)c2)n1)c1ccc(C(C)(C)C)cc1, amide bond, 13-membered ring, HATU/DIEA, DMF, 162.0 mM, 0.5 h): 8%

Structure (SMILES): Cc1cccc(C)c1-c1cc2nc(n1)NS(=O)(=O)c1cccc(c1)C(=O)NC[C@H](c1ccccc1)O2 [Compound 26, (10S)-6-(2,6-Dimethylphenyl)-2,2-dioxo-10-phenyl-9-oxa-2λ^6-thia-3,5,12,19-tetrazatricyclo[12.3.1.14,8]nonadeca-1(18),4(19),5,7,14,16-hexaen-13-one]
ring closure, yield after HPLC (from Cc1cccc(C)c1-c1cc(O[C@H](CN)c2ccccc2)nc(NS(=O)(=O)c2cccc(C(=O)O)c2)n1, amide bond, 13-membered ring, HATU/DIEA, DMF, 25.9 mM, 25.0 °C, 1.0 h, 2 steps): 38%

Structure (SMILES): Cc1cccc(C)c1-c1cc2nc(n1)NS(=O)(=O)c1cccc(c1)C(=O)NC[C@H](C)O2 [Compound 27, (10S)-6-(2,6-Dimethylphenyl)-10-methyl-2,2-dioxo-9-oxa-2λ^6-thia-3,5,12,19-tetrazatricyclo[12.3.1.14,8]nonadeca-1(18),4(19),5,7,14,16-hexaen-13-one]
ring closure, yield after HPLC (from Cc1cccc(C)c1-c1cc(O[C@@H](C)CN)nc(NS(=O)(=O)c2cccc(C(=O)O)c2)n1, amide bond, 13-membered ring, HATU/DIEA, DMF, 25.0 °C, 1.0 h, 2 steps): 55%

pEC50 (F508del; NIH 3T3 cells, F508del correction): > 6.00
Ent. A Max Activity (CFTR [1]; Enteroid Assay A): +++ (+++ is >600%)
pEC50 (CFTR [1]; Enteroid Assay A): > 6.00
pEC50 (CFTR [2]; Enteroid Assay B): > 6.00
Structure (SMILES): Cc1cccc(C)c1-c1cc2nc(n1)NS(=O)(=O)c1cccc(c1)C(=O)N[C@H](CC(C)(C)C)CO2 [Compound 97, (11R)-6-(2,6-dimethylphenyl)-11-(2,2-dimethylpropyl)-2,2-dioxo-9-oxa-2λ^6-thia-3,5,12,19-tetrazatricyclo[12.3.1.14,8]nonadeca-1(18),4(19),5,7,14,16-hexaen-13-one]
